Test results published in ChEMBL document CHEMBL1145498, “A systematic interaction map of validated kinase inhibitors with Ser/Thr kinases” (Proc Natl Acad Sci U S A, 2007).

What follows are compounds tested against Cyclin-dependent kinase 6 (Homo sapiens) (UniProt Q00534).
Chain of Cyclin-dependent kinase 6 (Homo sapiens) (Q00534 whole entry): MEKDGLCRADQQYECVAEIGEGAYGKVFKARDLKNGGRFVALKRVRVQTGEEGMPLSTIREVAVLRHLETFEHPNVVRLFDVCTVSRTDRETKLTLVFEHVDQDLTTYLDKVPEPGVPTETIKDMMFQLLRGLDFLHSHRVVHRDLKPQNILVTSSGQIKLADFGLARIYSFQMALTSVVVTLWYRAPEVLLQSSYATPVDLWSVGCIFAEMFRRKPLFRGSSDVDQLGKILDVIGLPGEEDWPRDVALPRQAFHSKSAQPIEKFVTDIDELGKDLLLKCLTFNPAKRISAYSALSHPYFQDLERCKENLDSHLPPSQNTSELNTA

ΔTm | Structure (SMILES)
-0.2 °C | Ic1cccc(CSc2nnc(-c3ccncc3)o2)c1
0.3 °C | CC(C)c1cc(/C=C(\C#N)C(=O)NCCCc2ccccc2)cc(C(C)C)c1O
-6.6 °C | CC(C)(C)c1cc(C=C2C(=O)C=CC2=O)cc(C(C)(C)C)c1O
0.9 °C | COc1ccc(COc2ccc(Cc3cnc(N)nc3N)cc2OC)cc1
0.5 °C | C#Cc1cccc(Nc2ncnc3cc(OCCOC)c(OCCOC)cc23)c1

What follows are compounds tested against Cyclin-dependent kinase 16 (Homo sapiens) (UniProt Q00536).
Chain of Cyclin-dependent kinase 16 (Homo sapiens) (Q00536 whole entry): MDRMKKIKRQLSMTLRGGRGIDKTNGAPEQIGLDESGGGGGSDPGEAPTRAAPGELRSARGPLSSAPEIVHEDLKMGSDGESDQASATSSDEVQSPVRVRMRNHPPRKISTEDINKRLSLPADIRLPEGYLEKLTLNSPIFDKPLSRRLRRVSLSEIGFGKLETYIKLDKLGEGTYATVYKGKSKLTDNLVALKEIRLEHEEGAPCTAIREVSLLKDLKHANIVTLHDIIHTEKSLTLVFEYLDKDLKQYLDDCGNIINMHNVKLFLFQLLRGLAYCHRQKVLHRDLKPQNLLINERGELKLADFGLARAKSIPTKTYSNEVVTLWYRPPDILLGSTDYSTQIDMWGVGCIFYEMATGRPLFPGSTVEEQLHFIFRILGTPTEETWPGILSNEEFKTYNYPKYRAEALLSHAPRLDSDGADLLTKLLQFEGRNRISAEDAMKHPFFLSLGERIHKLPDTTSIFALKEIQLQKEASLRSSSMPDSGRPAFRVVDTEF

ΔTm | Structure (SMILES)
-0.8 °C | Ic1cccc(CSc2nnc(-c3ccncc3)o2)c1
-0.1 °C | CC(C)c1cc(/C=C(\C#N)C(=O)NCCCc2ccccc2)cc(C(C)C)c1O
4.4 °C | CC(C)(C)c1cc(C=C2C(=O)C=CC2=O)cc(C(C)(C)C)c1O
0.1 °C | COc1ccc(COc2ccc(Cc3cnc(N)nc3N)cc2OC)cc1
-0.4 °C | C#Cc1cccc(Nc2ncnc3cc(OCCOC)c(OCCOC)cc23)c1

These compounds were tested against T1, Serine/threonine-protein kinase 4 (Homo sapiens) (UniProt Q13043).
T1 sequence (whole entry): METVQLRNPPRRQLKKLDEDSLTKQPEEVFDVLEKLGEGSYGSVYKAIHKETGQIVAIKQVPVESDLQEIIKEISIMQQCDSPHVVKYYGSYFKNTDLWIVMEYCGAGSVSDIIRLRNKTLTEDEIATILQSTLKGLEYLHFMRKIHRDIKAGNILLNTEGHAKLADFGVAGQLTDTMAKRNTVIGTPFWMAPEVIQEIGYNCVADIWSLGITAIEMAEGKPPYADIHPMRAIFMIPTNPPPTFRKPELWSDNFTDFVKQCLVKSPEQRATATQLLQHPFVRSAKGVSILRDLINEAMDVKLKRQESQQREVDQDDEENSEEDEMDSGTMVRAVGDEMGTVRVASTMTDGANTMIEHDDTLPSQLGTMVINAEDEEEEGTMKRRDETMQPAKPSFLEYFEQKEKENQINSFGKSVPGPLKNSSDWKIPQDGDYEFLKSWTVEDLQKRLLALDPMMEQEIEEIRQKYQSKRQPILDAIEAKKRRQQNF

ΔTm | Structure (SMILES)
-0.4 °C | Ic1cccc(CSc2nnc(-c3ccncc3)o2)c1
2.6 °C | CC(C)c1cc(/C=C(\C#N)C(=O)NCCCc2ccccc2)cc(C(C)C)c1O
1.2 °C | CC(C)(C)c1cc(C=C2C(=O)C=CC2=O)cc(C(C)(C)C)c1O
0.2 °C | COc1ccc(COc2ccc(Cc3cnc(N)nc3N)cc2OC)cc1
0.5 °C | C#Cc1cccc(Nc2ncnc3cc(OCCOC)c(OCCOC)cc23)c1

What follows are compounds tested against Mitogen-activated protein kinase 6 (Homo sapiens) (UniProt Q16659).
Chain of Mitogen-activated protein kinase 6 (Homo sapiens) (Q16659 whole entry): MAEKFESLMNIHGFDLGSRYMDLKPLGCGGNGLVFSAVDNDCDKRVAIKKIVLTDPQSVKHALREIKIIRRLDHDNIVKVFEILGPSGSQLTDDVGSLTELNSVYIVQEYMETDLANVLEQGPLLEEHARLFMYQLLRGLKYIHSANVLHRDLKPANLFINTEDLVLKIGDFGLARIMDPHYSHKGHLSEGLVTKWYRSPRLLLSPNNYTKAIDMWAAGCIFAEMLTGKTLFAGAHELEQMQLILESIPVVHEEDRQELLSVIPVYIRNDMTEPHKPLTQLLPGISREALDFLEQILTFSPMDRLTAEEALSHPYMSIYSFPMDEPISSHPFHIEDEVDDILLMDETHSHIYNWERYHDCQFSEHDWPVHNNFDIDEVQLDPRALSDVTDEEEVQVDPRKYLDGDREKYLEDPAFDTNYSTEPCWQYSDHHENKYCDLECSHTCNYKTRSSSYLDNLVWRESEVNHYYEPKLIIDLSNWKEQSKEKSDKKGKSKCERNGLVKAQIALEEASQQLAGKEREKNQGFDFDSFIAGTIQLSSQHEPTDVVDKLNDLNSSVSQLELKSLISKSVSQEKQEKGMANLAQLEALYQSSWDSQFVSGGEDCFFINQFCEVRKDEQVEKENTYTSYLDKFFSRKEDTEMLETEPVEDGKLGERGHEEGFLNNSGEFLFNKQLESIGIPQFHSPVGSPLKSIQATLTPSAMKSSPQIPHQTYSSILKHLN

ΔTm | Structure (SMILES)
-0.2 °C | Ic1cccc(CSc2nnc(-c3ccncc3)o2)c1
1.3 °C | CC(C)c1cc(/C=C(\C#N)C(=O)NCCCc2ccccc2)cc(C(C)C)c1O
-0.7 °C | CC(C)(C)c1cc(C=C2C(=O)C=CC2=O)cc(C(C)(C)C)c1O
1.5 °C | COc1ccc(COc2ccc(Cc3cnc(N)nc3N)cc2OC)cc1
0 °C | C#Cc1cccc(Nc2ncnc3cc(OCCOC)c(OCCOC)cc23)c1

Each compound was assayed against T2, Mitogen-activated protein kinase kinase kinase 5 (Homo sapiens) (UniProt Q99683).
T2 sequence (whole entry): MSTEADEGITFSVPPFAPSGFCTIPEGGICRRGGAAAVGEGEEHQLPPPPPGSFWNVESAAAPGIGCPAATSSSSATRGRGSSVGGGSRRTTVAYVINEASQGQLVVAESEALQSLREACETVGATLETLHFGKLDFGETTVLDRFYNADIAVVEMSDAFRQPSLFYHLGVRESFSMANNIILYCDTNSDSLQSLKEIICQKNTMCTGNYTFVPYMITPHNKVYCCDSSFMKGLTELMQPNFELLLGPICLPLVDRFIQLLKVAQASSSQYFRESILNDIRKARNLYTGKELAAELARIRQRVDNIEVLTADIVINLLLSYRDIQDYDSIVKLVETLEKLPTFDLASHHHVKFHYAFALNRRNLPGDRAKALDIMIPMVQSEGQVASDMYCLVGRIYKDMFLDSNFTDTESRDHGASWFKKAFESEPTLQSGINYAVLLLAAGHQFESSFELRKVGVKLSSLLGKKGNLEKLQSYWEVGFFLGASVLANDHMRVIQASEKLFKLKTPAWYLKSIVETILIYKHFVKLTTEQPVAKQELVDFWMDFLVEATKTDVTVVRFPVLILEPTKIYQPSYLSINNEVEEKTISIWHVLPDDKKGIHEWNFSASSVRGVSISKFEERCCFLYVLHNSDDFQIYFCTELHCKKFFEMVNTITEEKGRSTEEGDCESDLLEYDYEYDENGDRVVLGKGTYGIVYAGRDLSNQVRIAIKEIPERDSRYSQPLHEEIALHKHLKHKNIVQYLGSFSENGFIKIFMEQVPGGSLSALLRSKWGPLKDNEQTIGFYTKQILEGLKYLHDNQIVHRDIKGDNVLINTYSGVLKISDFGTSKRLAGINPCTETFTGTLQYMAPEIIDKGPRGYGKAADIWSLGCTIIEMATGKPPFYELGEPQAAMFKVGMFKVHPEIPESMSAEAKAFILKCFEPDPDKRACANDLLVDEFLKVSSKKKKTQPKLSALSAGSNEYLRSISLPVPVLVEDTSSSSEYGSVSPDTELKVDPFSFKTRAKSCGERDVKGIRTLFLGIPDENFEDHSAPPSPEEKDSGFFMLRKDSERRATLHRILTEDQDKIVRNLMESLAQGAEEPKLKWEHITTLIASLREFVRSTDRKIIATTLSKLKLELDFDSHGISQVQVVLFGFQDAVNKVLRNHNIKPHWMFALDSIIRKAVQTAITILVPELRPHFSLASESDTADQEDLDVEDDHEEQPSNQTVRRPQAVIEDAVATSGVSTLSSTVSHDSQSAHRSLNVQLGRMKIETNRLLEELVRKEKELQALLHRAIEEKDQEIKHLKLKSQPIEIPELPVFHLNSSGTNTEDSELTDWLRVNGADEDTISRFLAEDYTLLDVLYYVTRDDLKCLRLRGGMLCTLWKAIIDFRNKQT

ΔTm | Structure (SMILES)
0.8 °C | Ic1cccc(CSc2nnc(-c3ccncc3)o2)c1
0.3 °C | CC(C)c1cc(/C=C(\C#N)C(=O)NCCCc2ccccc2)cc(C(C)C)c1O
0.1 °C | CC(C)(C)c1cc(C=C2C(=O)C=CC2=O)cc(C(C)(C)C)c1O
-0.2 °C | COc1ccc(COc2ccc(Cc3cnc(N)nc3N)cc2OC)cc1
0.3 °C | C#Cc1cccc(Nc2ncnc3cc(OCCOC)c(OCCOC)cc23)c1

These compounds were tested against Serine/threonine-protein kinase PLK1 (Homo sapiens) (UniProt P53350).
Chain of Serine/threonine-protein kinase PLK1 (Homo sapiens) (P53350 whole entry): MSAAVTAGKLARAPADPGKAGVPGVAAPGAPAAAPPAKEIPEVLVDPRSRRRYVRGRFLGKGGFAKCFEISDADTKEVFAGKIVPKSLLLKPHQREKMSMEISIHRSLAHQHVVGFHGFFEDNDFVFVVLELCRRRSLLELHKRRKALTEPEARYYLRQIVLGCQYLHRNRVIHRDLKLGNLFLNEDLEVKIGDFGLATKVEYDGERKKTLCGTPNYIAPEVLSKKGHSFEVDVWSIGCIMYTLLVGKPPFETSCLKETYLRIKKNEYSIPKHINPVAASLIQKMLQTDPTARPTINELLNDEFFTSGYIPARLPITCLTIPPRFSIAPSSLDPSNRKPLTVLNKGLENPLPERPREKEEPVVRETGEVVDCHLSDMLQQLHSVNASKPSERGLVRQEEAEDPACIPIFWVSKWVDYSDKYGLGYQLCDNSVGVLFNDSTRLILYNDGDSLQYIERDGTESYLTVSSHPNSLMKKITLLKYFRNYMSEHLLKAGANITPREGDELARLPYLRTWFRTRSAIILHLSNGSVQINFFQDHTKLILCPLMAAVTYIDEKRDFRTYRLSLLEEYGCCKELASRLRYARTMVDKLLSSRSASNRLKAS

ΔTm | Structure (SMILES)
-0.9 °C | Ic1cccc(CSc2nnc(-c3ccncc3)o2)c1
0.4 °C | CC(C)c1cc(/C=C(\C#N)C(=O)NCCCc2ccccc2)cc(C(C)C)c1O
1.1 °C | CC(C)(C)c1cc(C=C2C(=O)C=CC2=O)cc(C(C)(C)C)c1O
-1 °C | COc1ccc(COc2ccc(Cc3cnc(N)nc3N)cc2OC)cc1
1.6 °C | C#Cc1cccc(Nc2ncnc3cc(OCCOC)c(OCCOC)cc23)c1

What follows are compounds tested against Calcium/calmodulin-dependent protein kinase type 1G (Homo sapiens) (UniProt Q96NX5).
Chain of Calcium/calmodulin-dependent protein kinase type 1G (Homo sapiens) (Q96NX5 whole entry): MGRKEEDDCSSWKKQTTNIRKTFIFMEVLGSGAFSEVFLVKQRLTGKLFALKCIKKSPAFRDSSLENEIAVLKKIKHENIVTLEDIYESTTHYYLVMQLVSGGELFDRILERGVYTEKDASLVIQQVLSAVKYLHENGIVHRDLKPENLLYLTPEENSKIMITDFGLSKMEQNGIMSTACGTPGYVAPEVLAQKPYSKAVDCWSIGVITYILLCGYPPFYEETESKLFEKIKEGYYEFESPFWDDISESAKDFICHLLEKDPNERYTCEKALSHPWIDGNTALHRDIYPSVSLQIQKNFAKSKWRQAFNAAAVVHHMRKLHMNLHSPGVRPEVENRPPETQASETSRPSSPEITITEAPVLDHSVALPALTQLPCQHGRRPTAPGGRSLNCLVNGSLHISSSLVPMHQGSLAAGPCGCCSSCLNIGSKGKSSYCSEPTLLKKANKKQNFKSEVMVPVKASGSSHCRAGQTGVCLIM

ΔTm | Structure (SMILES)
-0.7 °C | Ic1cccc(CSc2nnc(-c3ccncc3)o2)c1
2.8 °C | CC(C)c1cc(/C=C(\C#N)C(=O)NCCCc2ccccc2)cc(C(C)C)c1O
-0.4 °C | CC(C)(C)c1cc(C=C2C(=O)C=CC2=O)cc(C(C)(C)C)c1O
-0.2 °C | COc1ccc(COc2ccc(Cc3cnc(N)nc3N)cc2OC)cc1
0 °C | C#Cc1cccc(Nc2ncnc3cc(OCCOC)c(OCCOC)cc23)c1

The compounds below were run against T3, Serine/threonine-protein kinase Nek2 (Homo sapiens) (UniProt P51955).
T3 sequence (whole entry): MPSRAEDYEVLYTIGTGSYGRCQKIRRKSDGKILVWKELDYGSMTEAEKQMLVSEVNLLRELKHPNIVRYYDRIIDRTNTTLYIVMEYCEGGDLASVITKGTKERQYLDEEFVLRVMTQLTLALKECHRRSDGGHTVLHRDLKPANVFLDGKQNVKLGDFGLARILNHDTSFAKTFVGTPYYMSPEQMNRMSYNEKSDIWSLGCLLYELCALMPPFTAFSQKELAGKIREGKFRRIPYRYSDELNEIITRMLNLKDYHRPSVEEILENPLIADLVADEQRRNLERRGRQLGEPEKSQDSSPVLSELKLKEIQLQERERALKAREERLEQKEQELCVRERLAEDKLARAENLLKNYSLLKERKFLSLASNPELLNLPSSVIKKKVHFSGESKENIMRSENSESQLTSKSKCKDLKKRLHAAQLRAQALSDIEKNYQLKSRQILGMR

ΔTm | Structure (SMILES)
-0.2 °C | Ic1cccc(CSc2nnc(-c3ccncc3)o2)c1
2.1 °C | CC(C)c1cc(/C=C(\C#N)C(=O)NCCCc2ccccc2)cc(C(C)C)c1O
1.1 °C | CC(C)(C)c1cc(C=C2C(=O)C=CC2=O)cc(C(C)(C)C)c1O
-0.1 °C | COc1ccc(COc2ccc(Cc3cnc(N)nc3N)cc2OC)cc1
1 °C | C#Cc1cccc(Nc2ncnc3cc(OCCOC)c(OCCOC)cc23)c1

What follows are compounds tested against Serine/threonine-protein kinase 10 (Homo sapiens) (UniProt O94804).
Chain of Serine/threonine-protein kinase 10 (Homo sapiens) (O94804 whole entry, looked up): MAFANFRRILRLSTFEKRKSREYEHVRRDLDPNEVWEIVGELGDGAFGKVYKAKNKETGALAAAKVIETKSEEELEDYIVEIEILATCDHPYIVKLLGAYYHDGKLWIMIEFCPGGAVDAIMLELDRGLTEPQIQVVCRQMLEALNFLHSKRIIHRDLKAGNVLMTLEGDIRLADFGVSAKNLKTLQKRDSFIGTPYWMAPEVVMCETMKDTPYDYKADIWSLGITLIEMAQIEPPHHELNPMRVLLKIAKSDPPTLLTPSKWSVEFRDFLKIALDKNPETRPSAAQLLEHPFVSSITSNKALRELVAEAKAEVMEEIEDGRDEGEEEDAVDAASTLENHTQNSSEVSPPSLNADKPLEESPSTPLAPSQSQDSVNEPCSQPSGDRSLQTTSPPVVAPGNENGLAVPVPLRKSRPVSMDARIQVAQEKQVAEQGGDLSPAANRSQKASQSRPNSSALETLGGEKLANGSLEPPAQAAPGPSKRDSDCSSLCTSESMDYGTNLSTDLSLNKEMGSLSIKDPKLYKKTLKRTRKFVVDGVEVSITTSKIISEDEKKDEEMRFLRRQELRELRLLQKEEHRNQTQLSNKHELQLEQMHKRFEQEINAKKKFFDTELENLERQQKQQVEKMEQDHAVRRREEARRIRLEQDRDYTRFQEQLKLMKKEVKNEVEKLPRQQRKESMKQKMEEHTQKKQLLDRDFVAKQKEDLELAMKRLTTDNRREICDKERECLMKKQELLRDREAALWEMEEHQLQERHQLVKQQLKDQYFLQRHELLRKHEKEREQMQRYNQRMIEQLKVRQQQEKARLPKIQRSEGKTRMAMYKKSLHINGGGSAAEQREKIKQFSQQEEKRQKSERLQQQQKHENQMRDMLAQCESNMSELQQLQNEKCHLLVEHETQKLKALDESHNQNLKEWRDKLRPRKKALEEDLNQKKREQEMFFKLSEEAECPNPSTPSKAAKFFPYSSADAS

ΔTm | Structure (SMILES)
1.4 °C | Ic1cccc(CSc2nnc(-c3ccncc3)o2)c1
-0.1 °C | CC(C)c1cc(/C=C(\C#N)C(=O)NCCCc2ccccc2)cc(C(C)C)c1O
0.4 °C | CC(C)(C)c1cc(C=C2C(=O)C=CC2=O)cc(C(C)(C)C)c1O
-0.5 °C | COc1ccc(COc2ccc(Cc3cnc(N)nc3N)cc2OC)cc1
0 °C | C#Cc1cccc(Nc2ncnc3cc(OCCOC)c(OCCOC)cc23)c1

What follows are compounds tested against Dual specificity protein kinase CLK3 (Homo sapiens) (UniProt P49761).
Chain of Dual specificity protein kinase CLK3 (Homo sapiens) (P49761 whole entry, looked up): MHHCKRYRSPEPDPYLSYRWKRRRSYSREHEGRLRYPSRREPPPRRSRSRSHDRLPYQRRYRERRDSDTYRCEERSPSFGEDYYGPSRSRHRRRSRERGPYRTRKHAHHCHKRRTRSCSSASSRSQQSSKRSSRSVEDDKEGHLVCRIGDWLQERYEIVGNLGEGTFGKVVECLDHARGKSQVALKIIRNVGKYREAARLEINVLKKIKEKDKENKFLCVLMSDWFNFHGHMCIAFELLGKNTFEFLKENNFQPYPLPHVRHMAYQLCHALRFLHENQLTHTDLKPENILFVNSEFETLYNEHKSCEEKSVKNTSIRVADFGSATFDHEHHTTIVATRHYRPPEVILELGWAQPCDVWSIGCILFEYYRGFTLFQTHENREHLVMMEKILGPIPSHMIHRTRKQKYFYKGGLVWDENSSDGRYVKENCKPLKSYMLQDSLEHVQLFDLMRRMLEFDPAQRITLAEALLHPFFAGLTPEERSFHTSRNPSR

ΔTm | Structure (SMILES)
1.5 °C | Ic1cccc(CSc2nnc(-c3ccncc3)o2)c1
1.2 °C | CC(C)c1cc(/C=C(\C#N)C(=O)NCCCc2ccccc2)cc(C(C)C)c1O
0.1 °C | CC(C)(C)c1cc(C=C2C(=O)C=CC2=O)cc(C(C)(C)C)c1O
0.1 °C | COc1ccc(COc2ccc(Cc3cnc(N)nc3N)cc2OC)cc1
0.9 °C | C#Cc1cccc(Nc2ncnc3cc(OCCOC)c(OCCOC)cc23)c1
